Reference: ChEMBL document CHEMBL1201862, “PubChem BioAssay data set” (2004)
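Growth conditions: 96-well plates. Treatment: test compound, 48 hours, 5 concentrations. Analysis: linear interpolation between bracketing concentrations; unreached endpoints set to highest concentration. GI50: concentration for 50% inhibition of growth.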 Calls of active or inactive are those of the source. Cut-off read from the data, not from the text of the source: active = GI50 up to about 1.1 µM and inactive = higher.

Key:
Assay in all cases: NCI tumour cell line growth inhibition, 48 h
[1] = test system: 786-0
[2] = test system: A498
[3] = test system: A549
[4] = test system: ACHN
[5] = test system: CAKI-1
[6] = test system: CCRF-CEM
[7] = test system: COLO 205
[8] = test system: DU-145
[9] = test system: EKVX
[10] = test system: HCC 2998
[11] = test system: HCT-116
[12] = test system: HCT-15
[13] = test system: HL-60
[14] = test system: HOP-92
[15] = test system: HT-29
[16] = test system: Hs-578T
[17] = test system: IGROV-1
[18] = test system: K562
[19] = test system: KM12
[20] = test system: LOX IMVI
[21] = test system: M14
[22] = test system: MDA-MB-231
[23] = test system: MDA-MB-435
[24] = test system: MDA-N
[25] = test system: MOLT-4
[26] = test system: Malme-3M
[27] = test system: NCI-H226
[28] = test system: NCI-H23
[29] = test system: NCI-H460
[30] = test system: NCI-H522
[31] = test system: NCI/ADR-RES
[32] = test system: OVCAR-3
[33] = test system: OVCAR-4
[34] = test system: OVCAR-5
[35] = test system: OVCAR-8
[36] = test system: RPMI-8226
[37] = test system: RXF 393
[38] = test system: SF-268
[39] = test system: SF-295
[40] = test system: SF-539
[41] = test system: SK-MEL-28
[42] = test system: SK-MEL-2
[43] = test system: SK-MEL-5
[44] = test system: SK-OV-3
[45] = test system: SN12C
[46] = test system: SNB-19
[47] = test system: SNB-75
[48] = test system: SR
[49] = test system: SW-620
[50] = test system: T47D
[51] = test system: TK-10
[52] = test system: U-251
[53] = test system: UACC-257
[54] = test system: UACC-62
[55] = test system: UO-31
[56] = test system: HOP-62
[57] = test system: MCF7
[58] = test system: PC-3

With O=c1[nH]nc(-c2ccccc2)n1Nc1ccccc1 the GI50 [1] was > 100 µM (inactive), the GI50 [2] was > 100 µM (inactive) and the GI50 [3] was > 100 µM (inactive). The GI50 [4] was > 100 µM (inactive), the GI50 [5] was > 100 µM (inactive) and the GI50 [6] was > 100 µM (inactive). For the same compound, the GI50 [7] was > 100 µM (inactive), the GI50 [8] was > 100 µM (inactive) and the GI50 [9] was > 100 µM (inactive). For the same compound, the GI50 [10] was > 100 µM (inactive), the GI50 [11] was > 100 µM (inactive) and the GI50 [12] was over 100 µM. For the same compound, the GI50 [13] was > 100 µM (inactive), the GI50 [14] was > 100 µM (inactive) and the GI50 [15] was > 100 µM (inactive). The GI50 [16] was > 100 µM (inactive), the GI50 [17] was > 100 µM (inactive) and the GI50 [18] was > 100 µM (inactive). The GI50 [19] was > 100 µM (inactive), the GI50 [20] was > 100 µM (inactive) and the GI50 [21] was > 100 µM (inactive). The GI50 [22] was > 100 µM (inactive), the GI50 [23] was > 100 µM (inactive) and the GI50 [24] was > 100 µM (inactive). The GI50 [25] was > 100 µM (inactive), the GI50 [26] was > 100 µM (inactive) and the GI50 [27] was > 100 µM (inactive). The GI50 [28] was > 100 µM (inactive), the GI50 [29] was > 100 µM (inactive) and the GI50 [30] was > 100 µM (inactive). The GI50 [31] was > 100 µM (inactive), the GI50 [32] was > 100 µM (inactive) and the GI50 [33] was > 100 µM (inactive). The GI50 [34] was > 100 µM (inactive), the GI50 [35] was > 100 µM (inactive) and the GI50 [36] was > 100 µM (inactive). The GI50 [37] was > 100 µM (inactive), the GI50 [38] was > 100 µM (inactive) and the GI50 [39] was > 100 µM (inactive). The GI50 [40] was > 100 µM (inactive), the GI50 [41] was > 100 µM (inactive) and the GI50 [42] was > 100 µM (inactive). For the same compound, the GI50 [43] was > 100 µM (inactive), the GI50 [44] was > 100 µM (inactive) and the GI50 [45] was > 100 µM (inactive). The GI50 [46] was > 100 µM (inactive), the GI50 [47] was > 100 µM (inactive) and the GI50 [48] was > 100 µM (inactive). For the same compound, the GI50 [49] was > 100 µM (inactive), the GI50 [50] was > 100 µM (inactive) and the GI50 [51] was > 100 µM (inactive). The GI50 [52] was > 100 µM (inactive), the GI50 [53] was > 100 µM (inactive) and the GI50 [54] was > 100 µM (inactive). For the same compound, the GI50 [55] was > 100 µM (inactive).
For Cc1cccc(N(C(=O)Nc2ccc(Cl)c(Cl)c2)C2=NCC(C)S2)c1 (stereo not drawn), the GI50 [1] was 31.8 µM (inactive), the GI50 [2] was 57.8 µM (inactive) and the GI50 [3] was 38.9 µM (inactive). The GI50 [4] was 50.1 µM (inactive), the GI50 [5] was 46.5 µM (inactive) and the GI50 [6] was 46.1 µM (inactive). The GI50 [7] was 44.7 µM (inactive), the GI50 [8] was > 100 µM (inactive) and the GI50 [9] was 84.7 µM (inactive). The GI50 [10] was 36.8 µM (inactive), the GI50 [11] was 43.1 µM (inactive) and the GI50 [12] was 41.6 µM. For the same compound, the GI50 [13] was 41.6 µM (inactive), the GI50 [56] was > 100 µM (inactive) and the GI50 [14] was 38.6 µM (inactive). The GI50 [15] was 11.4 µM (inactive), the GI50 [16] was 32.5 µM (inactive) and the GI50 [17] was 69.7 µM (inactive). The GI50 [18] was 24.8 µM (inactive), the GI50 [19] was 18.9 µM (inactive) and the GI50 [20] was 18.3 µM (inactive). The GI50 [21] was 0.55 µM (active), the GI50 [57] was 17 µM (inactive) and the GI50 [22] was 29.8 µM (inactive). The GI50 [24] was 32.9 µM (inactive), the GI50 [25] was 16.2 µM (inactive) and the GI50 [26] was 60.1 µM (inactive). The GI50 [28] was 37.3 µM (inactive), the GI50 [29] was 41.9 µM (inactive) and the GI50 [31] was 28 µM (inactive). For the same compound, the GI50 [32] was 74.5 µM (inactive), the GI50 [33] was 41.6 µM (inactive) and the GI50 [34] was > 100 µM (inactive). For the same compound, the GI50 [35] was 60.4 µM (inactive), the GI50 [58] was 43.9 µM (inactive) and the GI50 [36] was 49.1 µM (inactive). For the same compound, the GI50 [38] was 23.2 µM (inactive), the GI50 [39] was 78.3 µM (inactive) and the GI50 [40] was 22.7 µM (inactive). For the same compound, the GI50 [41] was 38.6 µM (inactive), the GI50 [42] was 23.8 µM (inactive) and the GI50 [43] was 17.5 µM (inactive). For the same compound, the GI50 [44] was > 100 µM (inactive), the GI50 [45] was 59.3 µM (inactive) and the GI50 [46] was > 100 µM (inactive). For the same compound, the GI50 [47] was 54.3 µM (inactive), the GI50 [48] was 32.6 µM (inactive) and the GI50 [49] was 32.1 µM (inactive). For the same compound, the GI50 [50] was 9.84 µM (inactive), the GI50 [51] was 23.8 µM (inactive) and the GI50 [52] was 62.5 µM (inactive). The GI50 [53] was 42.9 µM (inactive) and the GI50 [55] was > 100 µM (inactive).
